From patent US9846168B2, “Fluorescent metal ion indicators with large stokes shifts” (LIFE TECHNOLOGIES CORPORATION, priority 2004, dated 2017)

Assays:
[1] = Absorption and fluorescence emission spectra of calcium binding compounds; assay type: physicochemical; conditions: for λem (nm): emission maximum, excited at wavelength of maximum absorption, Ca++ buffers 0-39 μM; for λex (nm): wavelength of maximum absorption, 39 μM Ca++ buffer, 100 mM KCl, 30 mM MOPS pH7.2 (Compounds 5, 10, 13), Zero Ca++ buffer (Compound 18), npH2O (Compound 21)
Experimental: (§1) In all cases, samples were dissolved in nanopure(np)-H2O at concentrations of approximately 1 mg/mL, except Compound 18 which was dissolved in 1:1 DMSO:npH2O. Non-quantitative aliquots of these solutions were added to approximately 3 mL of 39 μM Ca++ buffer, 100 mM KCl, 30 mM MOPS (pH7.2) (Compounds 5, 10, 13), Zero Ca++ buffer, 100 mM KCl, 30 mM MOPS (pH7.2) (Compound 18), or npH2O (Compound 21). Absorption spectra were obtained using a Perkin Elmer UV/Vis Spectrometer (Lambda 35 or 40). Fluorescence samples were prepared by pipetting aliquots of respective stock solutions to a series of disposable cuvettes containing 2 mL of Ca++ buffers from Calcium Calibration Buffer Kit #2 (Invitrogen cat.#3009) (0-39 μM). The final concentration of compound ranged from approximately 0.1-4 μM. Samples were excited at their wavelength of maximum absorption and spectra were obtained using a Perkin Elmer Luminescence Spectrometer (LS50B, LS55). Emission intensities were recorded at the respective maxima and Kd values calculated.

[2] = Calcium binding: fluorescence titration in Ca++ buffers (0-39 μM), Kd calculated; conditions: fluorescence change on calcium binding
Experimental: as §1

SMILES	λem (nm) [1]	λex (nm) [1]	ΔF = Fb/Fo [2]
Cc1ccc(N(CC(=O)[O-])CC(=O)[O-])c(OCCOc2cc(CNS(=O)(=O)c3cccc4c(N(C)C)cccc34)ccc2N(CC(=O)[O-])CC(=O)[O-])c1.[K+].[K+].[K+].[K+] [Compound 5]	549 nm	331 nm	3
Cc1ccc(N(CC(=O)[O-])CC(=O)[O-])c(OCCOc2cc(CNC(=O)c3c4oc5cc(O)ccc5nc-4ccc3=O)ccc2N(CC(=O)[O-])CC(=O)[O-])c1.[Li+].[Li+].[Li+].[Li+] [Compound 18]	589 nm	550 nm	5
Cc1ccc(N(CC(=O)[O-])CC(=O)[O-])c(OCCOc2cc(CN3C(=O)c4cccc5c(N)ccc(c45)C3=O)ccc2N(CC(=O)[O-])CC(=O)[O-])c1.[K+].[K+].[K+].[K+] [Compound 13]	550 nm	432 nm	12
Cc1ccc(N(CC(=O)[O-])CC(=O)[O-])c(OCCOc2cc(CNC(=O)c3cc(=O)cc4oc5cc(N(C)C)ccc5nc3-4)ccc2N(CC(=O)[O-])CC(=O)[O-])c1.[Li+].[Li+].[Li+].[Li+] [Compound 21]	641 nm	612 nm	11
